Assay results as given in patent US20110065783A1, “HYDROXYLATED NEBIVOLOL METABOLITES” (priority 2005, published 2011).

Assays:
[1] = tested on: human umbilical vein endothelial cells (HUVEC); experiment: Peak NO release from HUVEC after acute treatment (porphyrinic probe); format: cell-based
Description: All measurements presented are recorded in vitro using a sensitive porphyrinic probe. NO release is measured directly from human umbilical vein endothelial cells (HUVEC). HUVEC cells were obtained from American Type Culture Collection (Manassas, Va.) and grown in Ham's F12K medium with 2 mM L-glutamine adjusted to contain 1.5 g/l sodium bicarbonate and supplemented with 0.1 mg/ml heparin and 0.03-0.05 mg/ml endothelial cell growth supplement (ECGS)=10% fetal bovine serum. The HUVEC cells were kept in an atmosphere of elevated CO2 concentration (5%). Nebivolol, its enantiomers, and nebivolol metabolites including the nebivolol glucuronides, 4-hydroxy-5′ phenol metabolite, 4-hydroxy-8′-phenol metabolite, 4-hydroxy, 5-hydroxy, 8-hydroxy metabolites, N-DAD, N-DACA and N-DAAA, are obtained from Mylan Laboratories (Morgantown, W. Va.)
All measurements of endothelial NO release are conducted in Hank's balance solution at 37° C. Cell wells are transferred to a Faraday cage and a porphyrinic sensor (diameter 0.5 mm) is positioned at a distance of 5±2 μm from the surface of the endothelial cells using an inverted microscope (Leica Microsystems, Wetzler, Germany) and a computer-assisted micromanipulator. The sensor operates with a three-electrode system: nanosensor (working electrode), saturated calomel electrode (reference electrode) and platinum wire (counter electrode, 0.5 mm diameter). The three electrodes are connected to a potentiostat/galvanostat PAR273. The baseline is stabilized after about 20 seconds. The test compounds are injected with a nanoinjector on to the surface of the cells following solubilization in buffer. The current proportional to the NO concentration is measured with the sensor, which operates in amperometric mode at a constant potential of 0.63V. Data are acquired with the use of an IBM computer with custom software and amperograms (current vs. time curves) and are recorded with a Guniry FAS1 Femtostat (Warminster, Pa.).
Nanosensors are prepared from carbon fibers. The size of the tip of carbon fiber is reduced from 6 μm to less than 1 μm by temperature controlled burning. The sensors are sensitized to NO by deposition of electrically conductive polymeric porphyrin and covered with a thin layer of Nafion. The prophyrinic microsensor has a response time of 0.1 ms at a micromolar NO concentration and 10 ms at the detection limit of 1 nM.
The nanosensor for NO is calibrated using saturated solution (concentration 1.82 mM verified with the coulometric method). Linear calibration curves are constructed for each sensor from […] before and after measurements of cell activity. The data are presented as the mean±SEM for each of the triplicate measurements. The data (calculation and plotting) are transferred to Microcal Origin Software (OriginLab Corp., Northampton, Mass.).
The HUVEC preparation is stable over the course of these experiments with the cells remaining viable in culture for >24 hours. Under non-stimulating conditions, basal levels of NO release are very low (<30 nM). Measurement of NO release as a function of treatment is conducted in individual endothelial cells. Multiple measurements of NO release can be conducted on single cells following a brief refractory period. For robust statistical analysis, separate cells are used for each concentration and type of drug used in these analyses.

[2] = tested on: HUVECs isolated from White and Black American donors; experiment: Acute NO release from endothelial cells of White and Black American donors (electrochemical nanosensors); format: cell-based, human; settings: for NO (nM), Black Donors, acute NO release / NO (nM), White Donors, acute NO release: acute drug treatment 1.0 μM, mean±S.D. (n=5); for NO (nM), Black Donors, acute NO release: HUVECs from Black American donors; for NO (nM), White Donors, acute NO release: HUVECs from White donors
From the text: Values are mean±S.D. (n=5).
The 4′(R)-hydroxy-5-fluoro-l-nebivolol metabolite also exceeds the activity of nebivolol and even l-nebivolol by >50%. These findings indicate that hydroxy metabolites of nebivolol have distinct and highly reproducible effects on acute NO release in human endothelial cells.
In Table 1 and FIG. 7, the comparative effects of nebivolol, d-nebivolol, l-nebivolol and six stereoselective hydroxy metabolites on NO release are shown for cells harvested from white (open bars) and black American (solid bars) donors. The release of the NO from these endothelial cells was evaluated with electrochemical nanosensors placed within close proximity to the cell surface. […] The 4′(R)-hydroxy-5-fluoro-l-nebivolol metabolite (1689-64B) also exceeds the activity of l-nebivolol by >50%. The metabolite with the least activity is similar to nebivolol. These findings indicate that hydroxy metabolites of nebivolol have distinct and highly reproducible effects on acute NO release in human endothelial cells.

[3] = tested on: human endothelial cells; experiment: Capacity for NO release in human endothelial cells following chronic administration; format: cell-based

Compound	NO (nM), Black Donors, acute NO release [2]	NO (nM), White Donors, acute NO release [2]	other results
Oc1cc(F)cc2c1OC(C(O)CNCC(O)C1CCc3cc(F)ccc3O1)CC2 (stereo not drawn) [8-hydroxy nebivolol]			peak NO release ([1]; 10 μM, acute, FIG. 3): approximately 220 nM
O[C@H](CNC[C@@H](O)[C@H]1CCc2cc(F)ccc2O1)[C@@H]1CCc2cc(F)ccc2O1 [d-nebivolol, reference compound]	87 ± 6 nM	127 ± 17 nM	
Oc1c(F)ccc2c1CCC(C(O)CNCC(O)C1CCc3cc(F)ccc3O1)O2 (stereo not drawn) [5-hydroxy nebivolol]			peak NO release ([1]; 10 μM, acute, FIG. 3): approximately 220 nM
OC(CNCC(O)C1CCc2cc(F)ccc2O1)C1CCc2cc(F)ccc2O1 (racemic) [nebivolol]	148 ± 10 nM	218 ± 11 nM	NO peak release ([1]; 5 μM, acute, FIG. 4): ~225 nm
OC1CC(C(O)CNCC(O)C2CCc3cc(F)ccc3O2)Oc2ccc(F)cc21 (stereo not drawn) [4-hydroxy nebivolol]			NO release compared with reference agents (in words) ([1]; 5 μM, acute, FIG. 4): approximates values measured with acetylcholine; peak NO release ([1]; 5 μM, acute, FIG. 4): exceeds 400 nM; NO release from human endothelial cells, concentration dependence (in words) ([1]; acute administration): increase NO release from human endothelial cell in concentration dependent fashion; EC50 ([1]; acute, concentration-response, FIG. 6): 500 nM; capacity for NO release following chronic administration (in words) [3]: increase the capacity for NO release
Oc1cc2c(cc1F)OC(C(O)CNCC(O)C1C[C@H](O)c3cc(F)ccc3O1)CC2 (stereo partly drawn) [4 (S)-Hydroxy-7′-fluoro-6′-hydroxy-l-nebivolol]	242 ± 12 nM	272 ± 12 nM	
O[C@@H](CNC[C@H](O)[C@H]1CCc2cc(F)ccc2O1)[C@@H]1CCc2cc(F)ccc2O1 [l-nebivolol, reference compound]	192 ± 9 nM	268 ± 12 nM	
OC(CNCC(O)C1C[C@H](O)c2cc(F)ccc2O1)C1CCc2cc(F)ccc2O1 (stereo partly drawn) [4(S)-Hydroxy-l-nebivolol]	151 ± 8 nM	204 ± 12 nM	
Oc1ccc2c(c1F)CCC(C(O)CNCC(O)C1C[C@@H](O)c3cc(F)ccc3O1)O2 (stereo partly drawn) [4′(R)-Hydroxy-5-fluoro-6-hydroxy-l-nebivolol]	316 ± 17 nM	407 ± 27 nM	NO release activity in excess of l-nebivolol ([2]; acute treatment, compared with l-nebivolol (b247 also nebivolol)): > 50%
Oc1ccc2c(c1F)CCC(C(O)CNCC(O)C1CCc3cc(F)ccc3O1)O2 (stereo not drawn) [5-fluoro-6-hydroxy-l-nebivolol]	212 ± 9 nM	258 ± 20 nM	
OC(CNCC(O)C1C[C@@H](O)c2cc(F)ccc2O1)C1CCc2cc(F)ccc2O1 (stereo partly drawn) [4′(R)-Hydroxy-l-nebivolol]	194 ± 10 nM	237 ± 11 nM	
Oc1cc2c(cc1F)OC(C(O)CNCC(O)C1C[C@@H](O)c3cc(F)ccc3O1)CC2 (stereo partly drawn) [4′(R)-Hydroxy-7-fluoro-6-hydroxy-l-nebivolol]	383 ± 18 nM	476 ± 20 nM	NO release, black donors ([2]; acute treatment, endothelial cells from black donors): 383 ± 18 nmol/L; NO release, white donors ([2]; acute treatment, endothelial cells from white donors): 476 ± 20 nmol/L; increase in NO release as compared to nebivolol ([2]; acute treatment, white and black donors): nearly two-fold increase
